Patent US12054498B2, “Heteroaromatic macrocyclic ether chemotherapeutic agents” (Nuvalent, Inc., priority 2020, dated 2024)

Legend:
TRKA-wt = target: T1, TRKA-wt (Homo sapiens, UniProt P04629); test: Biochemical kinase assay, TRKA-wt kinase domain; details: apparent inhibitory constant, Morrison equation; ATP 2 mM in substrate solution; read-out: TRKA-wt Ki^app
T1 construct: or TRKA-wt (1 nM, BPS Bio, 40280) kinase domains in buffer; purchased BPS Bio 40280
Procedure: (§1) First, 250 nL of compound dissolved in DMSO (100-fold of the desired concentration) was dispensed into a 384-well plate. A 12.5 μL substrate solution containing ATP (2 mM) and fluorogenic phosphorylation substrate AQT0101 (26 μM for ALK and ROS1, AssayQuant) or AQT0104 (26 μM for TRKA, AssayQuant) in buffer (50 mM HEPES pH 7.5, 0.01% Brij-35, 0.5 mM EGTA, 10 mM MgCl2) was added and mixed thoroughly. Then, a 12.5 μL kinase solution containing ALK-wt (1.5 nM, Carna, 08-518), ALK ALK L1196M/G1202R (3 nM, SignalChem, A19-12NG), ROS1-wt (0.6 nM, Carna, 08-163), ROS1-G2032R (0.5 nM, SignalChem, R14-12BG), or TRKA-wt (1 nM, BPS Bio, 40280) kinase domains in buffer (50 nM HEPES pH 7.5, 0.01% Brij-35, 2% glycerol, 0.4 mg/mL BSA, 0.5 mM EGTA, and 10 mM MgCl2) was added and mixed thoroughly. The plate was sealed and read by SpectraMax Paradigm at λ=485 nm every 2 minutes for 120 minutes at 30° C. Initial rates of reaction (v) were calculated from the change in fluorescence intensity over time during the initial, linear portion of the reaction. Finally, apparent inhibitory constants (Ki^app) were determined from regression of v and I (inhibitor concentration) to Morrison Equation (E=enzyme concentration): […]

[1] = target: T2, Ba/F3 cells CD74-ROS1 wild-type (wt) (Homo sapiens, UniProt P08922); test: Ba/F3 cell proliferation assay, CD74-ROS1 wild-type; type: cell-based; details: 72 hours, CellTiter-Glo
T2 construct: fusion of the C-terminus of ROS1 with the N-terminus of various partner proteins; host or cells: Ba/F3 (RIKEN), retroviral pMSCV-puro; the other entry of the earlier key: CD74 (P04233, HLA class II histocompatibility antigen gamma chain)
Outline: (§2)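 Viability read by CellTiter-Glo luminescence after 72 h exposure to 3-fold serial compound dilutions, four-parameter logistic fitting giving IC50.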

[2] = tested on: TPM3-NTRK1-wt IC50 / primary target IC50 (e.g. CD74-ROS1-wt); test: TRKA selectivity in Ba/F3 cells (TRKA potency divided by primary target potency); type: cell-based; details: for TPM3-NTRK1-wt/CD74-ROS1-G2032R selectivity ratio: TRKA potency / CD74-ROS1-G2032R potency; for TPM3-NTRK1-wt/CD74-ROS1-wt selectivity ratio: TRKA potency / CD74-ROS1-wt potency; for TPM3-NTRK1-wt/EML4-ALK-L1196M-G1202R selectivity ratio: TRKA potency / EML4-ALK-L1196M-G1202R potency; for TPM3-NTRK1-wt/EML4-ALK-wt selectivity ratio: TRKA potency / EML4-ALK-wt potency
Procedure: TRKA selectivity was calculated by dividing a compound's TRKA potency by its primary target potency (e.g. TPM3-NTRK1-wt IC50/CD74-ROS1-wt IC50). Compound selectivity can be interpreted by binning ratio values: bin A for very high selectivity, ratio >30-fold; bin B for high selectivity, ratio >10-fold; bin C for moderate selectivity, ratio ≥1; and bin D for low selectivity, ratio <1. […] (nd=not determined).

[3] = target: T3, Ba/F3 cells CD74-ROS1 G2032R (Homo sapiens, UniProt P08922, G2032R); test: Ba/F3 cell proliferation assay, CD74-ROS1 G2032R; type: cell-based; details: 72 hours, CellTiter-Glo
T3 construct: fusion of the C-terminus of ROS1 with the N-terminus of various partner proteins; host or cells: Ba/F3 (RIKEN), retroviral pMSCV-puro; the other entry of the earlier key: CD74 (P04233, HLA class II histocompatibility antigen gamma chain)
Outline: as §2

ROS1-G2032R = target: T4, ROS1-G2032R (Homo sapiens, UniProt P08922, G2032R); test: Biochemical kinase assay, ROS1-G2032R kinase domain; details: apparent inhibitory constant, Morrison equation; ATP 2 mM in substrate solution; read-out: ROS1-G2032R Ki^app
T4 construct: purchased SignalChem R14-12BG
Procedure: as §1, with “Then, a 12.5 μL kinase solution containing ALK-wt (1.5 nM, Carna, 08-518), ALK ALK L1196M/G1202R (3 nM, SignalChem, A19-12NG), ROS1-wt (0.6 nM, Carna, 08-163), ROS1-G2032R (0.5 nM, SignalChem, R14-12BG), or TRKA-wt (1 nM, BPS Bio, 40280) kinase domains in buffer (50 nM HEPES pH 7.5, 0.01% Brij-35, 2% glycerol, 0.4 mg/mL BSA, 0.5 mM EGTA, and 10 mM MgCl2) was added and mixed thoroughly.” left out

[4] = target: T5, Ba/F3 cells EML4-ALK wt (variant 1) (Homo sapiens, UniProt Q9UM73); test: Ba/F3 cell proliferation assay, EML4-ALK wt (variant 1); type: cell-based; details: 72 hours, CellTiter-Glo
T5 construct: echinoderm microtubule-associated protein-like 4 (EML4) gene and the ALK tyrosine kinase domain; host or cells: Ba/F3 (RIKEN), retroviral pMSCV-puro; the other entry of the earlier key: EML4 (Q9HC35, Echinoderm microtubule-associated protein-like 4)
Outline: (§3)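 First, Ba/F3 cells were made IL-3-independent via retroviral fusion expression and puromycin selection, then cloned by single-cell dilution. Next, 1,000 cells/well were plated for a day, exposed to 3-fold diluted compounds for 72 hours, and lysed with CellTiter-Glo. Finally, IC50 was fitted by four-parameter logistic regression.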

[5] = target: T6, Ba/F3 cells EML4-ALK L1196M/G1202R (variant 1) (Homo sapiens, UniProt Q9UM73, G1202R/L1196M); test: Ba/F3 cell proliferation assay, EML4-ALK L1196M/G1202R (variant 1); type: cell-based; details: 72 hours, CellTiter-Glo
T6 construct: echinoderm microtubule-associated protein-like 4 (EML4) gene and the ALK tyrosine kinase domain; host or cells: Ba/F3 (RIKEN), retroviral pMSCV-puro; the other entry of the earlier key: EML4 (Q9HC35, Echinoderm microtubule-associated protein-like 4)
Outline: as §3

Ba/F3 cells TPM3-TRKA = target: T7, Ba/F3 cells TPM3-TRKA (Homo sapiens, UniProt P04629); test: Ba/F3 cell proliferation assay, TPM3-TRKA; type: cell-based; details: 72 hours, CellTiter-Glo, read-out: TPM3-NTRK1-wt IC50
T7 construct: host or cells: Ba/F3 (RIKEN), retroviral pMSCV-puro; the other entry of the earlier key: TPM3 (P06753, Tropomyosin alpha-3 chain)
Outline: as §3

ALK-wt = target: T8, ALK-wt (Homo sapiens, UniProt Q9UM73); test: Biochemical kinase assay, ALK-wt kinase domain; details: apparent inhibitory constant, Morrison equation; ATP 2 mM in substrate solution; read-out: ALK-wt Ki^app
T8 construct: purchased Carna 08-518
Procedure: as §1

ROS1-wt = target: T9, ROS1-wt (Homo sapiens, UniProt P08922); test: Biochemical kinase assay, ROS1-wt kinase domain; details: apparent inhibitory constant, Morrison equation; ATP 2 mM in substrate solution; read-out: ROS1-wt Ki^app
T9 construct: purchased Carna 08-163
Procedure: as §1, with “Then, a 12.5 μL kinase solution containing ALK-wt (1.5 nM, Carna, 08-518), ALK ALK L1196M/G1202R (3 nM, SignalChem, A19-12NG), ROS1-wt (0.6 nM, Carna, 08-163), ROS1-G2032R (0.5 nM, SignalChem, R14-12BG), or TRKA-wt (1 nM, BPS Bio, 40280) kinase domains in buffer (50 nM HEPES pH 7.5, 0.01% Brij-35, 2% glycerol, 0.4 mg/mL BSA, 0.5 mM EGTA, and 10 mM MgCl2) was added and mixed thoroughly.” left out

ALK L1196M/G1202R = target: T10, ALK L1196M/G1202R (Homo sapiens, UniProt Q9UM73, G1202R/L1196M); test: Biochemical kinase assay, ALK L1196M/G1202R kinase domain; details: apparent inhibitory constant, Morrison equation; ATP 2 mM in substrate solution; read-out: ALK-L1196M-G1202R Ki^app
T10 construct: purchased SignalChem A19-12NG
Procedure: as §1

T7 sequence (P04629 510-796 limits assumed): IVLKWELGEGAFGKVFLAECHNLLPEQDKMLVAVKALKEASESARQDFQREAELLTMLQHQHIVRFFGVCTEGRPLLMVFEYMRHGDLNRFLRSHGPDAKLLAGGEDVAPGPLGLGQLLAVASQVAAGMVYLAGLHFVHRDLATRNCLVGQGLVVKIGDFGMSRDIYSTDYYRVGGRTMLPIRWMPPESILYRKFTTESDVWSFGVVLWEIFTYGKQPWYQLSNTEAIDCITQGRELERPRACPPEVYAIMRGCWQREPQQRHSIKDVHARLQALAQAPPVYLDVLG
T9 sequence (P08922 1945-2222 limits assumed): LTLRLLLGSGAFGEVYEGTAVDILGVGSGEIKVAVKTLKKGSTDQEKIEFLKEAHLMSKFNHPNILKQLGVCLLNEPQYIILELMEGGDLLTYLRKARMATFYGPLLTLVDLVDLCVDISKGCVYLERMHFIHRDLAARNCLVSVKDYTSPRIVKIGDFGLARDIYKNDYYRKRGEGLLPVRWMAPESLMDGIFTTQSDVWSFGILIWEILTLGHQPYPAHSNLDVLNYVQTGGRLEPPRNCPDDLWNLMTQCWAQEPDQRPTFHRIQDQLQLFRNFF
T8 sequence (Q9UM73 1116-1392 limits assumed): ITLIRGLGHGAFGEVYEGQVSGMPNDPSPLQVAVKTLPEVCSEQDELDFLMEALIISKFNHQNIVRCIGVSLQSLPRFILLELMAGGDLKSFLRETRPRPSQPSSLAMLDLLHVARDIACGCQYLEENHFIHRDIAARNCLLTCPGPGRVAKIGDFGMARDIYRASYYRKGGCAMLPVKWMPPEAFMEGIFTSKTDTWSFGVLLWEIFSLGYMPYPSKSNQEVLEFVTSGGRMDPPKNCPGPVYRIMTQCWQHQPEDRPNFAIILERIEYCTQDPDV
T4 sequence (P08922 1945-2222 G2032R limits assumed): as the sequence (P08922 1945-2222 limits assumed) above, with G88R counted along it
T3 sequence (P08922 1883-2347 G2032R limits assumed): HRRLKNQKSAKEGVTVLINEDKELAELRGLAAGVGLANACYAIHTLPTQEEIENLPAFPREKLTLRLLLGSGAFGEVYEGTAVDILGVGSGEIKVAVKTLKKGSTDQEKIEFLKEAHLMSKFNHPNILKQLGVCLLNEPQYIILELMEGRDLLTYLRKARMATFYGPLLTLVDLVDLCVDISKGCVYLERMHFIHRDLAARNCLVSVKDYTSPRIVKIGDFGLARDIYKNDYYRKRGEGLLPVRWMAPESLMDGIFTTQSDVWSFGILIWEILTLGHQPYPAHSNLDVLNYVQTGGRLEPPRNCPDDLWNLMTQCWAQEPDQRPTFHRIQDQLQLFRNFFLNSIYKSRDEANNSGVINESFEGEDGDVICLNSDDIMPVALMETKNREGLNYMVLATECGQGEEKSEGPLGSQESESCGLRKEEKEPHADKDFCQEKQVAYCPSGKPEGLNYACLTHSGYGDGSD
T10 sequence (Q9UM73 1116-1392 L1196M/G1202R limits assumed): as the sequence (Q9UM73 1116-1392 limits assumed) above, with L81M, G87R counted along it
T6 sequence (Q9UM73 with tags, fused parts or gaps L1196M/G1202R): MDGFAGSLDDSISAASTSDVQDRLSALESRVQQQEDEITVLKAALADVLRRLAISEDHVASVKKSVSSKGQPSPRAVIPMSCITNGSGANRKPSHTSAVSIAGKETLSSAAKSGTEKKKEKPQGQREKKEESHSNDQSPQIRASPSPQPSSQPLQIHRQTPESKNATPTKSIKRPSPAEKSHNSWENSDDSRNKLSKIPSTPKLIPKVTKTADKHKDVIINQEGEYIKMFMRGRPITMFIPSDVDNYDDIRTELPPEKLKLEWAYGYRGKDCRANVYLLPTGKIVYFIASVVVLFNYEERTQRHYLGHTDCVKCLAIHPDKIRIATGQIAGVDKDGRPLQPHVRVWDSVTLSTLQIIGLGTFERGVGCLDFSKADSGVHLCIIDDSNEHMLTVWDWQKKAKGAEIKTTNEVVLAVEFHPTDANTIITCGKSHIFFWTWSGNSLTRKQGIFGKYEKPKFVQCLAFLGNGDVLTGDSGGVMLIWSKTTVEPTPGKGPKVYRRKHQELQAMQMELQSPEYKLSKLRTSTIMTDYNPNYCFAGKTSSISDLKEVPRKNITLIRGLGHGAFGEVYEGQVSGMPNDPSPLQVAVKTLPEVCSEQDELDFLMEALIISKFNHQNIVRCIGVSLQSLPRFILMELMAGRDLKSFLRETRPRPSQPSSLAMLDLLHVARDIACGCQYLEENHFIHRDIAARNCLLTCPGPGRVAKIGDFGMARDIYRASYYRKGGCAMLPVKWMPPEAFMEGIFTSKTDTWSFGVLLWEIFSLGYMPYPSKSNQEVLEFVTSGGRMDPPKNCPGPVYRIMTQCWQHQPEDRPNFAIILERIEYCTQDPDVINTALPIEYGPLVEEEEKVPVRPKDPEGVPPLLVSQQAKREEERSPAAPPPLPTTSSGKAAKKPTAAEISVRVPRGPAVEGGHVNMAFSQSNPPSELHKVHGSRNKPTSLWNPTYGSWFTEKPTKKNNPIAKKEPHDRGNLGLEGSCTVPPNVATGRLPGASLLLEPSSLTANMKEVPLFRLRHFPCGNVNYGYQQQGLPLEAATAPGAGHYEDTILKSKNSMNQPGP
T1 sequence (P04629 510-781 limits assumed): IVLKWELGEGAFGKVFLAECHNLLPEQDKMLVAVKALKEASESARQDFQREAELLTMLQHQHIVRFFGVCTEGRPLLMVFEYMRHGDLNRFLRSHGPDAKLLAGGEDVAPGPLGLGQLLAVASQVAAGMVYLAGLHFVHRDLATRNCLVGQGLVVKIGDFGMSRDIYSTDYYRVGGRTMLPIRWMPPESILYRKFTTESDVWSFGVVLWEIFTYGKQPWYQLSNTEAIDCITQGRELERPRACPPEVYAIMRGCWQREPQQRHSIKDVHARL
T2 sequence (P08922 1883-2347 limits assumed): as the sequence (P08922 1883-2347 G2032R limits assumed) above, with R150G counted along it
T5 sequence (Q9UM73 with tags, fused parts or gaps): as the sequence (Q9UM73 with tags, fused parts or gaps L1196M/G1202R) above, with M635L, R641G counted along it

| Structure (SMILES) | Ki (TRKA-wt) [nM] | IC50 [1] [nM] | IC50 [3] [nM] | Ki (ROS1-G2032R) [nM] | IC50 [4] [nM] | IC50 [5] [nM] | IC50 (Ba/F3 cells TPM3-TRKA) [nM] | Ki (ALK-wt) [nM] | Ki (ROS1-wt) [nM] | Ki (ALK L1196M/G1202R) [nM] | TPM3-NTRK1-wt/CD74-ROS1-G2032R selectivity ratio [2] | TPM3-NTRK1-wt/CD74-ROS1-wt selectivity ratio [2] | TPM3-NTRK1-wt/EML4-ALK-L1196M-G1202R selectivity ratio [2] | TPM3-NTRK1-wt/EML4-ALK-wt selectivity ratio [2] |
| --- | --- | --- | --- | --- | --- | --- | --- | --- | --- | --- | --- | --- | --- | --- |
| CCn1ncc2c1-c1cnc(N)c(c1)O[C@H](C)c1cc(F)ccc1-n1nc(C)nc1C2 [Example 40, (19R)-3-ethyl-16-fluoro-10,19-dimethyl-20-oxa-3,4,9,11,12,23-hexaazapentacyclo[19.3.1.0^2,^6.0^8,^12.0^13,^18] pentacosa 1(24),2(6),4,8,10,13,15,17,21(25),22-decaen-22-amine] | 50 to 500 | 0.1 to 50 | 0.1 to 50 | < 50 | 0.1 to 50 | 50 to 500 | 50 to 500 | < 50 | < 50 | < 50 | A (bin A for very high selectivity, ratio >30-fold) | A (bin A for very high selectivity, ratio >30-fold) | C (bin C for moderate selectivity, ratio ≥1) | B (bin B for high selectivity, ratio >10-fold) |
| C[C@H]1Oc2cc(cnc2N)-c2c(cnn2C2CCC2)Cn2ncc(C#N)c2-c2ccc(F)cc21 [Example 10, (19R)-22-amino-3-cyclobutyl-16-fluoro-19-methyl-20-oxa-3,4,8,9,23-pentaazapentacyclo[19.3.1.0^2,^6.0^8,^12.0^13,^18]pentacosa-1(24),2(6),4,9,11,13,15,1 7,21(25),22-decaene-11-carbonitrile] | > 500 | 0.1 to 50 | 0.1 to 50 | < 50 | 0.1 to 50 | 50 to 500 | > 500 | < 50 | < 50 | < 50 | A (bin A for very high selectivity, ratio >30-fold) | A (bin A for very high selectivity, ratio >30-fold) | B (bin B for high selectivity, ratio >10-fold) | A (bin A for very high selectivity, ratio >30-fold) |
| C[C@H]1Oc2cc(cnc2N)-c2c(C3CCC3)noc2Cn2ncnc2-c2ccc(F)cc21 [Example 52, (19R)-3-cyclobutyl-16-fluoro-19-methyl-5,20-dioxa-4,8,9,11,23-pentaazapentacyclo[19.3.1.0^2,^6.0^8,^12.0^13,^18]pentacosa-1(24),2(6),3,9,11,13,15,17,21(25),22-decaen-22-amine] | > 500 | 0.1 to 50 | 0.1 to 50 | < 50 | 0.1 to 50 | 50 to 500 | > 500 | < 50 | < 50 | < 50 | A (bin A for very high selectivity, ratio >30-fold) | A (bin A for very high selectivity, ratio >30-fold) | C (bin C for moderate selectivity, ratio ≥1) | A (bin A for very high selectivity, ratio >30-fold) |

Continued, in another order:

| Ki (TRKA-wt) [nM] | IC50 [1] [nM] | IC50 [3] [nM] | Ki (ROS1-G2032R) [nM] | IC50 [4] [nM] | IC50 [5] [nM] | IC50 (Ba/F3 cells TPM3-TRKA) [nM] | Ki (ALK-wt) [nM] | Ki (ROS1-wt) [nM] | Ki (ALK L1196M/G1202R) [nM] | Structure (SMILES) | TPM3-NTRK1-wt/CD74-ROS1-G2032R selectivity ratio [2] | TPM3-NTRK1-wt/CD74-ROS1-wt selectivity ratio [2] | TPM3-NTRK1-wt/EML4-ALK-L1196M-G1202R selectivity ratio [2] | TPM3-NTRK1-wt/EML4-ALK-wt selectivity ratio [2] |
| --- | --- | --- | --- | --- | --- | --- | --- | --- | --- | --- | --- | --- | --- | --- |
| 50 to 500 | 0.1 to 50 | 0.1 to 50 | < 50 | 0.1 to 50 | 0.1 to 50 | 50 to 500 | < 50 | < 50 | < 50 | C[C@H]1Oc2cc(cnc2N)-c2c(cnn2CC2CC2)Cn2nc(Cl)cc2-c2ccc(F)cc21 [Example 74, (19R)-10-chloro-3-(cyclopropylmethyl)-16-fluoro-19-methyl-20-oxa-3,4,8,9,23-pentaazapentacyclo[19.3.1.0^2,^6.0^8,^12.0^13,^18]pentacosa-1(24),2(6),4,9,11,13,15,17,21 (25),22-decaen-22-amine] | A (bin A for very high selectivity, ratio >30-fold) | A (bin A for very high selectivity, ratio >30-fold) | B (bin B for high selectivity, ratio >10-fold) | A (bin A for very high selectivity, ratio >30-fold) |
| 50 to 500 | 0.1 to 50 | 0.1 to 50 | < 50 | 0.1 to 50 | 0.1 to 50 | 50 to 500 | < 50 | < 50 | < 50 | CCn1ncc2c1-c1cnc(N)c(c1)O[C@H](C)c1cc(F)ccc1-c1oc(C)nc1C2 [Example 66, (19R)-3-ethyl-16-fluoro-10,19-dimethyl-11,20-dioxa-3,4,9,23-tetraazapentacyclo[19.3.1,0^2,^6.0^8,^12.0^13,^18]pentacosa-1(24),2(6),4,8(12),9,13,15,17,21(25),22-decaen-22-amine] | A (bin A for very high selectivity, ratio >30-fold) | A (bin A for very high selectivity, ratio >30-fold) | C (bin C for moderate selectivity, ratio ≥1) | B (bin B for high selectivity, ratio >10-fold) |
